Experimental data published in patent US20210137898A1, “METHODS TO TREAT GLIOMAS USING A STAT3 INHIBITOR” (Mayo Foundation for Medical Education and Research, priority 2017, published 2021).
pIC50: −log10 of the molar value.

Legend:
[1] = system: Peds8 H3K27M cells; test: Cell viability, STAT3 inhibitors, H3K27M cells Peds8; type: cell-based
Experimental: (§1) Results are mean±SD of three independent experiments. B and C. H3K27M cells (Peds8 and DIPG8) are selectively sensitive to inhibition by STAT3 inhibitors. […] C.
(§2) The role of STAT3 in midline H3K27M tumors (e.g., diffuse midline H3K27M tumors) has not been studied. To further validate STAT3 signaling as a potential drug target in these patients, it was determined if STAT3 is required for proliferation of H3K27M cells. […] Because of the critical dependence of STAT3 signaling in H3K27M tumor cells, the activity of STAT3 (pSTAT3) would be elevated in patients with DIPG tumors. Using treatment naive surgical samples from DIPG patients, an increase (>10-fold) in pSTAT3 levels was observed as compared to non-neoplastic brain tissues from other surgeries (FIG. 5A). Using large cohorts from published data sets, it was also seen a >2-fold increase in STAT3 mRNA expression (RNA-seq) in DIPG patients compared to normal brainy (FIG. 5B). In addition, pSTAT3 expression levels were increased in H3K27M cell lines compared to WT lines in both pediatric and adult high-grade gliomas (FIG. 6). […] The data presented supports a method of treating glioma with H3K27M mutation by restoration of methylation pattern. In one example, the methylation pattern is restored by a H3K27me3 demethylase inhibitor (e.g., GSK-J4).

[2] = system: DIPG8 H3K27M cells; test: Cell viability, STAT3 inhibitors, H3K27M cells DIPG8; type: cell-based; conditions: FIG. 4B/4C
Experimental: as §1, §2

[3] = system: WT SF9427 cell line; test: Cell viability, STAT3 inhibitors, WT SF9427 cell line; type: cell-based; conditions: WT SF9427 cells, FIG. 4B/4C
Experimental: as §1, §2

[4] = system: H3K27me3 in H3K27M tumor cells (Peds8); test: Global H3K27 trimethylation in H3K27M tumor cells after treatment; type: cell-based; conditions: vs no treatment (NT), FIG. 6B-D
Experimental: as §2

[5] = system: H3K27M tumor Peds17; set-up: species or system mice; conditions: mouse, in vivo, po
Experimental: H3K27M tumor Peds17 treated with STAT3 inhibitor WP1066 (20 mg/kg oral gavage) vs. control (DMSO) for 8 weeks. […] Cohorts of mice (n=10/group), were implanted in the brainstem and BLI was performed weekly using IVIS Lumina imaging system using luciferase transfected tumor cells.
To validate STAT3 as a therapeutic target for H3K27M tumors, the effects on tumor growth with WP1066 were evaluated in intracranial orthotopic xenografts (FIG. 7).

Compound | pIC50 ([1]; Peds8 (H3K27M) cells, FIG. 4B/4C) | cell viability of two H3K27M DIPG cell lines ([1]; two H3K27M DIPG cell lines, much less in WT SF9427 cell line) | pIC50 [2] | pIC50 [3] | H3K27me3 level [4] | toxicities in the mice [5]
C[C@H](NC(=O)/C(C#N)=C/c1cccc(Br)n1)c1ccccc1 [WP1066] | 5.72 | inhibited cell viability | 5.60 | 4.21 | increases H3K27me3 | no toxicities were noted
CCOC(=O)CCNc1cc(N2CCc3ccccc3CC2)nc(-c2ccccn2)n1 [GSKJ4] | – | – | – | – | increases H3K27me3 | –
